Our source for the EC50 values is patent US12673954B2 (BRISTOL-MYERS SQUIBB COMPANY, priority 2021, dated 2026).

The EC50 is the concentration needed to bring the measured effect to its halfway point.

Like-named read-outs stand apart in the source and are kept apart here.

Test [1] concerns IRF pathway, THP1-Dual™ cells. In words: STING reporter assay in THP1-Dual cells, IRF pathway (Lucia luciferase, QUANTI-Luc). The note with it: Homo sapiens, THP1-Dual, 20 h, read-out: IRF (EC50 μM). In kind it is cell-based, human. The method in brief: (§1)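 Activation normalised between DMSO-only baseline and 100 μM cGAMP maximum, after 20 h compound exposure (starting at 100 μM final) at 37° C, 5% CO2. Supernatant SEAP (QUANTI-Blue, OD620) reports NF-κB; secreted luciferase (QUANTI-Luc, RLU at 5 min) reports IRF.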
Background: A reporter such as luciferase makes a cellular process visible.

Test [2] has as its system NF-κB pathway, THP1-Dual™ cells. Kind of test: STING reporter assay in THP1-Dual cells, NF-κB pathway (SEAP, QUANTI-Blue). In kind it is cell-based, human. To be noted: Homo sapiens, THP1-Dual, 20 h, read-out: NFkB (EC50 μM). The method in brief:
as §1

[3] abbreviates: THP1-Dual cells, 10% human plasma, 20 hours, Lucia luciferase, 100% activation = 100 μM cGAMP.
The mark [4] stands for this setting: THP1-Dual cells, 10% human plasma, 20 hours, SEAP, 100% activation = 100 μM cGAMP.

Take `O=C(OC1CC(F)(F)C1)c1cc(F)cc2cc(CNC(=O)c3cnn4cccnc34)oc12` [EXAMPLE 236, 3,3-Difluorocyclobutyl 5-fluoro-2-((pyrazolo[1,5-a]pyrimidine-3-carboxamido)methyl)benzofuran-7-carboxylate]: the EC50 amounted to 1.3 µM in test [1] (setting [3]) and 1.8 µM in test [2] (setting [4]).

Consider `O=C(OC(CF)CF)c1cc(F)cc2cc(CNC(=O)c3cnn4cccnc34)oc12` [EXAMPLE 237, 1,3-Difluoropropan-2-yl 5-fluoro-2-((pyrazolo[1,5-a]pyrimidine-3-carboxamido)methyl)benzofuran-7-carboxylate], for which the EC50 in test [1] (setting [3]) and in test [2] (setting [4]) was 1.2 µM in each case.

As for `O=C(OC(C(F)(F)F)C(F)(F)F)c1cc(F)cc2cc(CNC(=O)c3cnn4cccnc34)oc12` [EXAMPLE 238, 1,1,1,3,3,3-Hexafluoropropan-2-yl 5-fluoro-2-((pyrazolo[1,5-a]pyrimidine-3-carboxamido)methyl)benzofuran-7-carboxylate], the EC50 in test [1] (setting [3]) stood at 1.6 µM; in test [2] (setting [4]), 1.7 µM.

As for `O=C(OCC(F)(F)F)c1cc(Cl)cc2cc(CNC(=O)c3cnn4cccnc34)oc12` [EXAMPLE 239, 2,2,2-Trifluoroethyl 5-chloro-2-((pyrazolo[1,5-a]pyrimidine-3-carboxamido)methyl)benzofuran-7-carboxylate], the EC50 in test [1] (setting [3]) turned out to be 0.53 µM; in test [2] (setting [4]), 0.39 µM.

For the molecule `CC(C)OC(=O)c1cc(Cl)cc2cc(CNC(=O)c3cnn4cccnc34)oc12` [EXAMPLE 240, Isopropyl 5-chloro-2-((pyrazolo[1,5-a]pyrimidine-3-carboxamido)methyl)benzofuran-7-carboxylate], the EC50 worked out at 0.78 µM in test [1] (setting [3]) and 0.61 µM in test [2] (setting [4]).

In the case of `N#CC1CC(OC(=O)c2cc(Cl)cc3cc(CNC(=O)c4cnn5cccnc45)oc23)C1` (centres unmarked) [EXAMPLE 241, 3-Cyanocyclobutyl 5-chloro-2-((pyrazolo[1,5-a]pyrimidine-3-carboxamido)methyl)benzofuran-7-carboxylate], the EC50 in test [1] (setting [3]) and in test [2] (setting [4]) was 2.3 µM each time.

Take `COC[C@@H](C)OC(=O)c1cc(Cl)cc2cc(CNC(=O)c3cnn4cccnc34)oc12` [EXAMPLE 242, (R)-1-Methoxypropan-2-yl 5-chloro-2-((pyrazolo[1,5-a]pyrimidine-3-carboxamido)methyl)benzofuran-7-carboxylate]: the values for the EC50 in test [1] (setting [3]) and in test [2] (setting [4]) were 2.4 µM and 2.1 µM, respectively.

Consider `O=C(OC1CCCC1)c1cc(Cl)cc2cc(CNC(=O)c3cnn4cccnc34)oc12` [EXAMPLE 243, Cyclopentyl 5-chloro-2-((pyrazolo[1,5-a]pyrimidine-3-carboxamido)methyl)benzofuran-7-carboxylate], for which the figures for the EC50 in test [1] (setting [3]) and in test [2] (setting [4]) were 1.6 µM and 1.9 µM, respectively.

Regarding `O=C(OC1CCCCC1)c1cc(Cl)cc2cc(CNC(=O)c3cnn4cccnc34)oc12` [EXAMPLE 244, Cyclohexyl 5-chloro-2-((pyrazolo[1,5-a]pyrimidine-3-carboxamido)methyl)benzofuran-7-carboxylate], the figures for the EC50 in test [1] (setting [3]) and in test [2] (setting [4]) were 2 µM and 1.9 µM, respectively.

Turning to `O=C(OC1CC(F)(F)C1)c1cc(Cl)cc2cc(CNC(=O)c3cnn4cccnc34)oc12` [EXAMPLE 245, 3,3-Difluorocyclobutyl 5-chloro-2-((pyrazolo[1,5-a]pyrimidine-3-carboxamido)methyl)benzofuran-7-carboxylate], the figures for the EC50 in test [1] (setting [3]) and in test [2] (setting [4]) were 1.8 µM and 1 µM, respectively.

In the case of `O=C(OC(CF)CF)c1cc(Cl)cc2cc(CNC(=O)c3cnn4cccnc34)oc12` [EXAMPLE 246, 1,3-Difluoropropan-2-yl 5-chloro-2-((pyrazolo[1,5-a]pyrimidine-3-carboxamido)methyl)benzofuran-7-carboxylate], the EC50 turned out to be 1.1 µM in test [1] (setting [3]) and 1 µM in test [2] (setting [4]).

For the molecule `CC(C)(C)OC(=O)N1CC(OC(=O)c2cc(Cl)cc3cc(CNC(=O)c4cnn5cccnc45)oc23)C1` [EXAMPLE 247, Tert-butyl 3-((5-chloro-2-((pyrazolo[1,5-a]pyrimidine-3-carboxamido)methyl)benzofuran-7-carbonyl)oxy)azetidine-1-carboxylate], the EC50 was found to be 9 µM in test [1] (setting [3]) and 13 µM in test [2] (setting [4]).

`O=C(OC1CNC1)c1cc(Cl)cc2cc(CNC(=O)c3cnn4cccnc34)oc12` [EXAMPLE 248, Azetidin-3-yl 5-chloro-2-((pyrazolo[1,5-a]pyrimidine-3-carboxamido)methyl)benzofuran-7-carboxylate]: the figures for the EC50 in test [1] (setting [3]) and in test [2] (setting [4]) were 73 µM and 98 µM, respectively.

Turning to `O=C(OCCOCCO)c1cc(Cl)cc2cc(CNC(=O)c3cnn4cccnc34)oc12` [EXAMPLE 249, 2-(2-Hydroxyethoxy)ethy1 5-chloro-2-((pyrazolo[1,5-a]pyrimidine-3-carboxamido)methyl)benzofuran-7-carboxylate], the EC50 in test [1] (setting [3]) is 2.4 µM; in test [2] (setting [4]), 2.5 µM.

Consider `O=C(OCCCCO)c1cc(Cl)cc2cc(CNC(=O)c3cnn4cccnc34)oc12` [EXAMPLE 250, 4-Hydroxybutyl 5-chloro-2-((pyrazolo[1,5-a]pyrimidine-3-carboxamido)methyl)benzofuran-7-carboxylate], for which the EC50 turned out to be 1.2 µM in test [1] (setting [3]) and 0.62 µM in test [2] (setting [4]).

As for `O=C(OCC(F)(F)C(F)(F)CO)c1cc(Cl)cc2cc(CNC(=O)c3cnn4cccnc34)oc12` [EXAMPLE 251, 2,2,3,3-Tetrafluoro-4-hydroxybutyl 5-chloro-2-((pyrazolo[1,5-a]pyrimidine-3-carboxamido)methyl)benzofuran-7-carboxylate], the EC50 in test [1] (setting [3]) turned out to be 0.93 µM; in test [2] (setting [4]), 1 µM.

With `O=C(OCc1cccc(CO)c1)c1cc(Cl)cc2cc(CNC(=O)c3cnn4cccnc34)oc12` [EXAMPLE 252, 3-(Hydroxymethyl)benzyl 5-chloro-2-((pyrazolo[1,5-a]pyrimidine-3-carboxamido)methyl)benzofuran-7-carboxylate], the results for the EC50 in test [1] (setting [3]) and in test [2] (setting [4]) were 6.4 µM and 5.4 µM, respectively.

Regarding `O=C(OCC(F)(F)C(F)(F)C(F)(F)CO)c1cc(Cl)cc2cc(CNC(=O)c3cnn4cccnc34)oc12` [EXAMPLE 253, 2,2,3,3,4,4-Hexafluoro-5-hydroxypentyl 5-chloro-2-((pyrazolo[1,5-a]pyrimidine-3-carboxamido)methyl)benzofuran-7-carboxylate], the results for the EC50 in test [1] and in test [2] were 0.96 µM and 0.93 µM, respectively.

On to `O=C(Oc1ccccc1)c1cc(Cl)cc2cc(CNC(=O)c3cnn4cccnc34)oc12` [EXAMPLE 254, Phenyl 5-chloro-2-((pyrazolo[1,5-a]pyrimidine-3-carboxamido)methyl)benzofuran-7-carboxylate], for which the EC50 in test [1] (setting [3]) worked out at 0.87 µM; in test [2] (setting [4]) it was 0.88 µM.

In the case of `O=C(OCCN1CCOCC1)c1cc(Cl)cc2cc(CNC(=O)c3cnn4cccnc34)oc12` [EXAMPLE 255, 2-Morpholinoethyl 5-chloro-2-((pyrazolo[1,5-a]pyrimidine-3-carboxamido)methyl)benzofuran-7-carboxylate], the EC50 in test [1] (setting [3]) was 13 µM; in test [2] (setting [4]), 19 µM.

Take `O=C(OCCCN1CCOCC1)c1cc(Cl)cc2cc(CNC(=O)c3cnn4cccnc34)oc12` [EXAMPLE 256, 3-Morpholinopropyl 5-chloro-2-((pyrazolo[1,5-a]pyrimidine-3-carboxamido)methyl)benzofuran-7-carboxylate]: the values for the 50% effective concentration (EC50) in test [1] (setting [3]) and in test [2] (setting [4]) were 6.7 µM and 4.8 µM, respectively.

Take `CN1CCN(CCOC(=O)c2cc(Cl)cc3cc(CNC(=O)c4cnn5cccnc45)oc23)CC1` [EXAMPLE 257, 2-(4-Methylpiperazin-1-yl)ethyl 5-chloro-2-((pyrazolo[1,5-a]pyrimidine-3-carboxamido)methyl)benzofuran-7-carboxylate]: the EC50 amounted to 28 µM in test [1] (setting [3]) and 11 µM in test [2] (setting [4]).

With `COCCOCCOC(=O)c1cc(Cl)cc2cc(CNC(=O)c3cnn4cccnc34)oc12` [EXAMPLE 258, 2-(2-Methoxyethoxy)ethyl 5-chloro-2-((pyrazolo[1,5-a]pyrimidine-3-carboxamido)methyl)benzofuran-7-carboxylate], the EC50 was 3 µM in test [1] (setting [3]) and 3.5 µM in test [2] (setting [4]).

In the case of `CC(=O)OCOC(=O)c1cc(Cl)cc2cc(CNC(=O)c3cnn4cccnc34)oc12` [EXAMPLE 259, Acetoxymethyl 5-chloro-2-((13yrazole[1,5-a]pyrimidine-3-carboxamido)methyl)benzofuran-7-carboxylate], the EC50 in test [1] (setting [3]) was found to be 2.3 µM; in test [2] (setting [4]), 2.2 µM.

Regarding `CCOC(=O)OCOC(=O)c1cc(Cl)cc2cc(CNC(=O)c3cnn4cccnc34)oc12` [EXAMPLE 260, ((Ethoxycarbonyl)oxy)methyl 5-chloro-2-((pyrazolo[1,5-a]pyrimidine-3-carboxamido)methyl)benzofuran-7-carboxylate], the EC50 in test [1] (setting [3]) came to 1 µM; in test [2] (setting [4]), 0.82 µM.

For `CC(C)OC(=O)c1cc(Cl)cc2cc(Cn3cnc4ccncc4c3=O)oc12` [EXAMPLE 262, Isopropyl 5-chloro-2-((4-oxopyrido[4,3-d]pyrimidin-3(4H)-yl)methyl)benzofuran-7-carboxylate], the figures for the EC50 in test [1] (setting [3]) and in test [2] (setting [4]) were 14 µM and 18 µM, respectively.

`CCOc1ncncc1C(=O)NCc1cc2cc(Cl)cc(C(=O)O[C@H](C)C(F)(F)F)c2o1` [EXAMPLE 263, (R)-1,1,1-trifluoropropan-2-yl 5-chloro-2-((4-ethoxypyrimidine-5-carboxamido)methyl)benzofuran-7-carboxylate]: the EC50 in test [1] (setting [3]) was determined as 4.8 µM; in test [2] (setting [4]) it was 5.2 µM.

Take `O=C(NCc1cc2cc(Cl)cc(C(=O)OCC(F)(F)F)c2o1)c1cncc2[nH]cnc12` [EXAMPLE 264, 2,2,2-Trifluoroethyl 2-((3H-imidazo[4,5-c]pyridine-7-carboxamido)methyl)-5-chlorobenzofuran-7-carboxylate]: the EC50 in test [1] (setting [3]) and in test [2] (setting [4]) was 1.7 µM each time.
